{"source": "patent US8969413B2", "format_in_all_cases": "in vivo", "key": {"Wistar Albino rats": {"system": "Wistar Albino rats", "conditions": "20 mg/kg versus vigabatrin 200 mg/kg, 45 and 90 days", "description": "[…]. The formulations for each treatment group were prepared fresh weekly in 0.9% normal saline.\nAll animals were acclimated for 7 days to the test facility prior to the start of dosing and were housed in individual polycarbonate cages. The cage environment uses a standard 12 hr/12 hr light dark cycle, with standard industrial fluorescent lighting during the light cycle. During the course of the study, the animals were monitored for mortality, moribundity, clinical signs of illness, feed intake, and body weight change. Any animals found in distress for more than 24 hours were humanely euthanized. […]. […] At the conclusion of the dosing phase (5 of each sex for 45 days and 10 of each sex for 90 days), the animals entered a 5-7 day “washout” period, after which electroretinograms (ERGs) were measured for both eyes. The animals were then humanely euthanized, by CO2 asphyxiation in accordance with AVMA guidelines on euthanasia, for post-mortem pathology examinations. […]\nThe electroretinograms were measured with an Espion^2 ERG system with ColorDome Ganzfeld type illuminator by Diagnosys. […]"}, "Mice [1]": {"system": "Mice", "assay": "minimal clonic seizure (6 Hz) test", "conditions": "Single IP drug dose, 3 seconds, corneal electrode; for ED50: Mus musculus, ip", "from_the_text": "Some clinically useful AEDs are ineffective in the standard MES and scMET tests but still have anticonvulsant activities in vivo. In order to identify potential AEDs with this profile, compounds may be tested in the minimal clonic seizure (6 Hz or ‘psychomotor’) test (Barton et al., 2001). […] Test compounds are pre-administered to mice via i.p. injection. At varying times, individual mice (four per time point) are challenged with sufficient current delivered through corneal electrodes to elicit a psychomotor seizure in 97% of animals (32 mA for 3 s) (Toman et al., 1952). Untreated mice will display seizures characterized by a minimal clonic phase followed by stereotyped, automatistic behaviors described originally as being similar to the aura of human patients with partial seizures. Animals not displaying this behavior are considered protected. The test may be evaluated quantitatively by measuring the responses at varying doses at a determined time of peak effect (TPE). This test may also be conducted at 22 and 44 mA if requested by ASP staff."}, "Rat": {"system": "Rat", "assay": "subcutaneous Metrazol seizure threshold test (scMET)", "conditions": "7 days IP, 20 mg/kg dose only, Metrazol 70 mg/kg", "description": "Subcutaneous injection of the convulsant Metrazol produces clonic seizures in laboratory animals. […] Animals are pretreated with various doses of the test compound given by i.p. injection. At the previously determined TPE of the test compound, the dose of Metrazol which will induce convulsions in 97% of animals (CD97; 85 mg/kg mice) is injected into a loose fold of skin in the midline of the neck. The animals are placed in isolation cages to minimize stress (Swinyard et al, 1961) and observed for the next 30 minutes for the presence or absence of a seizure. An episode of clonic spasms, approximately 3-5 seconds, of the fore and/or hindlimbs, jaws, or vibrissae is taken as the endpoint."}, "Mice [2]": {"system": "Mice", "assay": "maximal electrical shock (MES) model", "conditions": "Single IP dose, 50 mA, 2 seconds, corneal electrode", "from_the_text": "The MES is a model for generalized tonic-clonic seizures and provides an indication of a compound's ability to prevent seizure spread when all neuronal circuits in the brain are maximally active. These seizures are highly reproducible and are electrophysiologically consistent with human seizures. For all tests based on MES convulsions, 60 Hz of alternating current (50 mA in mice) is delivered for 2 s by corneal electrodes which have been primed with an electrolyte solution containing an anesthetic agent (0.5% tetracaine HCL). Mice are tested at various intervals following doses of 30, 100 and 300 mg/kg of test compound given by i.p. injection of a volume of 0.01 mL/g. Other doses can be used if indicated by previously known pharmacology. An animal is considered “protected” from MES-induced seizures upon abolition of the hindlimb tonic extensor component of the seizure (Swinyard et al., 1989; White et al., 1995a; White et al., 1995b)."}}, "data": [{"compound": "N[C@H]1C[C@@H](C(=O)O)CC1=C(F)F", "note": "[CPP-115]", "values": [{"measurement": "visual field defects compared with vigabatrin", "setting": "Wistar Albino rats", "result": "less visual field defects than vigabatrin"}, {"measurement": "ED50", "setting": "Mice [1]; 32 mA", "result": 5.2, "unit": "mg/kg"}, {"measurement": "ED50", "setting": "Mice [1]; 44 mA", "result": 28.4, "unit": "mg/kg"}, {"measurement": "6 Hz TPE", "setting": "Mice [1]; 32 mA", "result": "TPE 4 hours"}, {"measurement": "6 Hz TPE", "setting": "Mice [1]; 44 mA", "result": "TPE 4 hours"}, {"measurement": "scMET protection", "setting": "Rat", "result": "No protection"}, {"measurement": "ED50", "setting": "Mice [2]; Mus musculus", "result": 58.9, "unit": "mg/kg"}, {"measurement": "MES TPE", "setting": "Mice [2]", "result": "TPE 6 hours"}]}]}
